Laboratory results from patent US20130203830A1, “Compounds for Prevention of Cell Injury” (SULFATEQ B.V., priority 2010, published 2013).
“Also recorded” adds a separate entry of the source.

Tests used:
[1] = system: DDT-1 cells; experiment: Survival of DDT-1 cells after hypothermia (MTS assay); assay type: cell-based, hamster; conditions: 3° C.; for resistance / survival of DDT-1 cells in hypothermia: 24 h, ketanserine 400 ng/ml and 10 μg/ml, fluoxetine 0.005 μM 15 min before, CBS siRNA
Method: Cell lines used included NRK (normal rat kidney cells), DDT-1 (hamster ductus deferens muscle cells) and A7R5 (rat vascular smooth muscle cells) cultured in DMEM (Gibco, 41966, UK) and SMAC (rat smooth muscle aortic cells) and THMC (transformed human mesangial cell) cultured in DMEM/F12 (Gibco, E12-719F). All media were supplied with 10% (vol/vol) fetal calf serum and 1% penicillin-streptomycin and cultured at 37° C. in 5% CO2 in 25 cm^2 or 75 cm^2 flasks. For hypothermia experiments, cells were plated in 6 or 96 wells plates and grown to confluence. […] Cell survival was measured by counting of trypan blue stained cells or MTS assay, which measures the number of viable cells. For the latter, 20 μl of MTS solution was added to each well and cells were subsequently placed in the incubator at 37° C. in 5% CO2 for 3 hr before assessing the cell survival by measuring absorption using a microplate reader at 490 nm.
(§1) MTS assay was performed to investigate cell survival after blocking serotonin transporter and hypothermic treatment.
Parachlorophenyl-alanine (PCPA; Sigma, C6506-5G) was dissolved in warmed, acidified (pH 6.8) DDT-1 medium and vortexed for 5 min to a final concentration of 1.25 μM. Other concentrations were made from this stock solution. Control experiments were performed with a similar solution without PCPA. Anhydrous creatine (Sigma C4255-25G, USA) was dissolved in cell medium and added to wells to exclude the effect of this component. The treatment continued for 4 days until the concentration of indoleamines inside the cells reached half the baseline value. The cells were placed at 3° C., and MTS assay was performed after 24 h.

[2] = system: DDT-1 cells; experiment: Indoleamine content of DDT-1 cells (Ehrlich reagent); assay type: cell-based, hamster; conditions: 4 days of pretreatment, n=8
Method: Ehrlich's reagent was used to quantify the cellular amount of indoles. Qualitative analysis of cellular indoles in cell culture medium at 37° C. and 3° C. was conducted after extraction according to Happold and Hoyle. Five ml of medium was shaken vigorously with 2 ml of xylene. Next, 1 ml of Ehrlich's reagent is applied to the surface of the mixture. Redistribution of xylene through the Ehrlich's reagent induces formation of the rosindole body, a red ring appearing at the lower surface of the xylene layer indicating the presence of indoleamides. The change in indole concentration in DDT-1 cells was measured after washing the cells with PBS, centrifugation (1000 rpm, 5 min) and removal of supernatant. Ehrlich reagent (200 μl) was added to each tube. After 3 min of vortexing, tubes were left for 3 h at 60° C. After centrifugation (1000 rpm, 5 min), color intensity was spectrophotometrically measured at 625 nm. Calibration experiments were carried out using 5-HT (0.025-0.5 mM), which rendered a linear regression with a correlation coefficient (R2) of 0.9996 (data not shown). To verify the accuracy of the Ehrlich reagent experiments automated mass spectrometric analysis was performed on all the samples according to the method set up by Ido P. Kema. […]

[3] = system: SMAC cells; experiment: H2S production in SMAC cells at 3° C. (methylene blue, supernatant); assay type: cell-based, rat; conditions: SMAC cells incubated at 3° C. for 24 hour
Method: (§2) Methylene blue method for H2S detection was applied to quantitatively measure the H2S production. Cells were washed with PBS, scraped and centrifuged for 60 sec at 1000 rpm. After removal of the supernatant, zinc acetate 1% in water (200 μl) was added to the cell sediments and the cells were disrupted by small glass beads and vortexed for 20 seconds. Diamine-ferric solution was prepared by mixing 100 μl of a 400 mg N,N-dimethyl-p-phenylenediamine dihydrochloride dissolved in 10 ml 6M HCl and 100 μl of 600 mg ferric chloride in 10 ml 6M HCl. Two hundred μl of this mixture was added to the cell suspension and after an incubation time of 30 min at 37° C. and centrifugation, the amount of methylene blue formed in the supernatant was measured at a wavelength of 670 nm. To measure H2S content of supernatant, the same procedure was repeated for the cell free medium of cells incubated at both 37° C. and 3° C. Blanks were made following the same procedure without cells or using fresh medium. The concentration of H2S was calculated by extrapolation using a standard curve obtained from different concentrations of Methylene blue and spectrophotometric measurement at a wavelength of 670 nm. The amount of H2S present was calculated on the basis that every mole of methylene blue formed in this reaction contains 32 g (1 mole) of captured sulfur.
Methylene blue method for H2S detection was applied to quantitatively examine the H2S present in cell supernatant at 0 and 24 hr after hypothermic treatment at 3° C.

[4] = system: SMAC cells; experiment: Survival of SMAC cells after hypothermia (MTS assay / cell counting); assay type: cell-based, rat; conditions: for effect on the protective effect of serotonin on hypothermic SMAC cells: 24 h, 3° C., ketanserine 400 ng/ml and 10 μg/ml, fluoxetine 0.005 μM, CBS siRNA
Method: Cell lines used included NRK (normal rat kidney cells), DDT-1 (hamster ductus deferens muscle cells) and A7R5 (rat vascular smooth muscle cells) cultured in DMEM (Gibco, 41966, UK) and SMAC (rat smooth muscle aortic cells) and THMC (transformed human mesangial cell) cultured in DMEM/F12 (Gibco, E12-719F). All media were supplied with 10% (vol/vol) fetal calf serum and 1% penicillin-streptomycin and cultured at 37° C. in 5% CO2 in 25 cm^2 or 75 cm^2 flasks. For hypothermia experiments, cells were plated in 6 or 96 wells plates and grown to confluence. Thereupon, cells were placed at 3° C. for up to 24 hours. Cell survival was measured by counting of trypan blue stained cells or MTS assay, which measures the number of viable cells. For the latter, 20 μl of MTS solution was added to each well and cells were subsequently placed in the incubator at 37° C. in 5% CO2 for 3 hr before assessing the cell survival by measuring absorption using a microplate reader at 490 nm.
as §1

[5] = system: DDT-1 cells; experiment: H2S content of DDT-1 cells (methylene blue method); assay type: cell-based, hamster; conditions: hypothermia, at 24 h
Method: as §2

[6] = molecular target: T1, CBS (Homo sapiens, UniProt P35520); conditions: binding to CBS; cited from earlier work
T1 sequence (P35520 1-551): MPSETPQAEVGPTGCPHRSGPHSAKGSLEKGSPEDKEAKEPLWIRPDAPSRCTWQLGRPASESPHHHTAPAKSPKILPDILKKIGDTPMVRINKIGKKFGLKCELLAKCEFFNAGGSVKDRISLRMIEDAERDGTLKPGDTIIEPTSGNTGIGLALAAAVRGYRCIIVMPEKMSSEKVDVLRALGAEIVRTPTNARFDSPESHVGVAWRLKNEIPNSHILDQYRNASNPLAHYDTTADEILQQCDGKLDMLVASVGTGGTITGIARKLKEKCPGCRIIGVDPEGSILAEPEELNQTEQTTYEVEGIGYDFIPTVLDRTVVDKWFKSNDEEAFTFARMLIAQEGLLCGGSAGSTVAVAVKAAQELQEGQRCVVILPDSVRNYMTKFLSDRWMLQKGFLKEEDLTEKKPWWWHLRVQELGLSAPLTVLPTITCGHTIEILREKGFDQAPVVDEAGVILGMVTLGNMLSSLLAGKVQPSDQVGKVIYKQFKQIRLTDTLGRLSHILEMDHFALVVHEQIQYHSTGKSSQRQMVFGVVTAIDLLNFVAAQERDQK

[7] = system: CBS; experiment: CBS expression in normothermic and hypothermic rat tissue (immunostaining); conditions: liver, pancreas, lung, kidney, heart; 3° C., 24 hr
Text: Two rats (rattus norvegicus) were sacrificed and blood was taken out. The tissues were flushed by either PBS as control or PBS plus dopamine. Liver, pancreas, lung, kidney and heart were harvested. […] Tissues were fixed after being taken out of cold room. The tissues were later embedded in Paraffin, cut into 5 μm sections and stained with CBS antibody.

[8] = system: male Wistar rats; experiment: In vivo protection from hypothermic liver damage (FABP1 expression); set-up: species or system rat; conditions: rats cooled to 15° C. for 3 hr and rewarmed to 37° C.; compared to non-cooled control
Method: (§3) Three groups of male Wistar rats (350-400 gr) were investigated: cooled rats either anesthetized with propofol or ketamine (n=6 each); a non-cooled control group briefly anesthetized with isofluran was sacrificed at 37° C. (n=3). After anesthesia with isofluran, the trachea was intubated with a […] cuffed tube and mechanical ventilation was started with air. A 5F central venous catheter was introduced in the internal jugular vein for blood sampling, hydration and administration of the anesthetic. A catheter was inserted in the common carotid artery for continuous monitoring of systemic arterial pressure and for blood gas analysis. Cardiovascular and oxygen saturation monitoring was performed during the entire procedure. After preparation, isoflurane was stopped and anesthesia was maintained with either propofol-Lipro (20 mg/m; Braun, Melsungen, Duitsland) at 2 ml/h or ketamine 0.6 ml/hr for 1 hr. Cooling of the animals was accomplished by an external cooling blanket and ice packs. […] Rats were kept at this temperature for 3 hr, followed by rewarming to 37° C. in about 1 hr using a heating blanket and warm air. The rats were then kept at 37° C. for another hr, followed by sacrification by exsanguination. Blood sampling was performed at the end of the preparation period and every hr after the body temperature reached 15° C. […]

[9] = Serum H2S concentration in rats (methylene blue method); assay type: in vivo, rat; conditions: throughout cooling and rewarming procedure, compared to control
[10] = system: CBS; experiment: CBS expression in liver of cooled and rewarmed rats; assay type: in vivo, rat; conditions: rats cooled to 15° C. for 3 hr and rewarmed; compared to controls
Method: as §3, with “exsanguination.” for “exsanguination. Blood sampling was performed at the end of the preparation period and every hr after the body temperature reached 15° C.”
CBS (cystathionine betasynthase) expression was also measured as the one of the main enzymes producing H2S in the liver.

## N[C@@H](Cc1ccc(Cl)cc1)C(=O)O (racemic) [PCPA, parachlorophenylalanine]
[1]; 48 hr
  DDT-1 survival following hypothermia after PCPA pretreatment: concentration-dependently decreased; also recorded: blocked
[2]
  decrease in indoleamine content of the cells: 50±10%

## NCC(CC(=O)O)c1ccc(Cl)cc1 (racemic) [baclofen, (RS)-4-amino-3-(4-chlorophenyl)butanoic acid]
[3]
  H2S production: increased H2S production

## CN(CC(=O)O)C(=N)N.O=S(=O)(O)O [Creatine sulfate]
[4]; SMAC cells, 24 h at 3° C., substance added 15 min before hypothermia
  protection against hypothermic cell death / reduction in number of cells: did not show any protective effects

## CNCCC(Oc1ccc(C(F)(F)F)cc1)c1ccccc1 (stereo not drawn) [Fluoxetine]
[1]
  resistance / survival of DDT-1 cells in hypothermia: death of more than half of these cells
[5]
  H2S concentration inside DDT-1 cells: lower concentration of H2S
[4]
  effect on the protective effect of serotonin on hypothermic SMAC cells: complete annihilation of the protective effect of serotonin

## O=C(c1ccc(F)cc1)C1CCN(CCn2c(=O)[nH]c3ccccc3c2=O)CC1 [Ketanserine]
[1]
  resistance / survival of DDT-1 cells in hypothermia: did not affect the resistance
[4]
  effect on the protective effect of serotonin on hypothermic SMAC cells: nor did it affect the protective effect of serotonin

## Cc1ncc(COP(=O)(O)O)c(C=O)c1O [PLP, Pyridoxal 5-Phosphate]
[6]
  free energy of binding reported for PLP: -4.81 kcal/mol

## NCCc1ccc(O)c(O)c1 [dopamine, 2-(3,4-dihydroxyfenyl)ethylamine]
[7]
  CBS expression in hypothermic rat tissue: increased expression; also recorded: upregulation of CBS
[3]
  H2S production: increased H2S production

## NCCc1c[nH]cn1 [histamine, 4-(2′-aminoethyl)-imidazol]
[3]
  H2S production: increased H2S production

## CNC1(c2ccccc2Cl)CCCCC1=O (stereo not drawn) [ketamine, reference compound]
[8]
  liver damage, FABP1 expression in liver: decreased expression of FABP1
[9]
  Serum H2S concentration: decreased
[10]
  CBS expression in liver: significantly lowered

## COc1ccc2[nH]cc(CCNC(C)=O)c2c1 [melatonin, N-[2-(5-methoxy-1H-indol-3-yl)ethyl]acetamide]
[3]
  H2S production: increased H2S production

## CC(C)c1cccc(C(C)C)c1O [propofol, 2,6-diisopropylfenol]
[8]
  liver damage, FABP1 expression in liver: protects liver tissue against in vivo hypothermia
[9]
  Serum H2S concentration: increased
[3]
  H2S production: increased H2S production
[10]
  CBS expression in liver: induces expression of cystathionine beta synthase; also recorded: increased the expression of CBS
